Experiment: Tissue distribution of tritium-labeled WP1122 and 2-DG in lungs after intravenous administration (liquid scintillation counting)
Assay type: in vivo
Conditions: male Sprague-Dawley rats; for Detection of 2-DG and metabolites in lungs: i.v., 15, 30, 60 min, 6 and 24 hours post-dose
Procedure: Experimental procedures. The pharmacokinetic and tissue organ distribution of WP1122 and 2-DG labeled with tritium was analyzed in male Sprague-Dawley rats. Animals (n=3 per timepoint) were dosed intravenously with 2-DG or WP1122 at equimolar dose 0.2 and 0.13 g/kg for WP1122 and 2-DG respectively. The animals were euthanized at 15, 30, 60 min and 6- and 24-hours post-dose. The organs were extracted, rinsed with PBS and radioactivity was measured using Liquid Scintillation Counting (LCS).

| SMILES | Detection of 2-DG and metabolites in lungs | Presence of metabolites in lungs compared with 2-DG administration (i.v., all time points including 24 hours after administration) | Highest concentration of radiolabeled compounds in lungs relative to radioactivity from 2-DG administration (i.v., equimolar 0.2 g/kg WP1122 vs 0.13 g/kg 2-DG, 15 min post injection) |
| --- | --- | --- | --- |
| OC[C@H]1OC(O)C[C@@H](O)[C@@H]1O (stereo partly drawn) [Example 2-DG, (4R,5S,6R)-6-(hydroxymethyl)tetrahydro-2H-pyran-2,4,5-triol, reference compound] | detected in lungs in all tested time-points | – | – |
| CC(=O)OC[C@H]1OC(O)C[C@@H](OC(C)=O)[C@@H]1O (stereo partly drawn) [WP1122, ((2R,3S,4R)-4-acetoxy-3,6-dihydroxytetrahydro-2H-pyran-2-yl)methyl acetate] | detected in lungs in all tested time-points | Increased presence of metabolites | nearly three times higher |
